According to publication PMC10893631, “Receptor-based pharmacophore modeling, molecular docking, synthesis and biological evaluation of novel VEGFR-2, FGFR-1, and BRAF multi-kinase inhibitors” (BMC Chemistry, 2024):

How the values were obtained:
Experiment in all cases: NCI SRB growth inhibition (single dose 10 µM / five-dose)
Assay type in all cases: cell-based, human
786–0 = conditions: Homo sapiens; for inhibition at 10 µM: 786–0 (Renal cancer), read-out: GI%
Outline: (§1)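 SRB protein stain of fixed cells; compounds tested at one dose (10 µM) or five serial dilutions (10-fold or ½ log), diluted from DMSO stock. Cells plated 24 h before dosing, with a time-zero plate fixed in TCA. Percent growth derived from Tz, control and test absorbances; TGI taken where Ti = Tz.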

A498 = conditions: Homo sapiens; for inhibition at 10 µM: A498 (Renal cancer), read-out: GI%
Outline: as §1

A549/ATCC = conditions: Homo sapiens; for inhibition at 10 µM: A549/ATCC (Non-small cell lung cancer), read-out: GI%
Outline: as §1

ACHN = conditions: Homo sapiens; for inhibition at 10 µM: ACHN (Renal cancer), read-out: GI%
Outline: as §1

BT-549 = conditions: Homo sapiens; for inhibition at 10 µM: BT-549 (Breast cancer), read-out: GI%
Outline: as §1

CAKI-1 = conditions: Homo sapiens; for inhibition at 10 µM: CAKI-1 (Renal cancer), read-out: GI%
Outline: as §1

CCRF-CEM = conditions: Homo sapiens; for inhibition at 10 µM: CCRF-CEM (Leukemia), read-out: GI%
Outline: as §1

COLO 205 = conditions: Homo sapiens; for inhibition at 10 µM: COLO 205 (Colon cancer), read-out: GI%
Outline: as §1

HCT-116 = conditions: Homo sapiens, HCT-116; for inhibition at 10 µM: read-out: GI%
Outline: as §1

HCT-15 = conditions: Homo sapiens; for inhibition at 10 µM: HCT-15 (Colon cancer), read-out: GI%
Outline: as §1

HS 578 T = conditions: Homo sapiens; for inhibition at 10 µM: HS 578 T (Breast cancer), read-out: GI%
Outline: as §1

IGROV1 = conditions: Homo sapiens, IGROV-1; for inhibition at 10 µM: IGROV1 (Ovarian cancer), read-out: GI%
Outline: as §1

K-562 = conditions: Homo sapiens, K562; for inhibition at 10 µM: K-562 (Leukemia), read-out: GI%
Outline: as §1

KM12 = conditions: Homo sapiens; for inhibition at 10 µM: KM12 (Colon cancer), read-out: GI%
Outline: as §1

MALME-3 M = conditions: Homo sapiens; for inhibition at 10 µM: MALME-3 M (Melanoma), read-out: GI%
Outline: as §1

MDA-MB-231/ATCC = conditions: Homo sapiens; for inhibition at 10 µM: MDA-MB-231/ATCC (Breast cancer), read-out: GI%
Outline: as §1

MDA-MB-435 = conditions: Homo sapiens; for inhibition at 10 µM: MDA-MB-435 (Melanoma), read-out: GI%
Outline: as §1

NCI/ADR-RES = conditions: Homo sapiens; NCI/ADR-RES (Ovarian cancer), 10 µM; read-out: GI%
Outline: as §1

OVCAR-4 = conditions: Homo sapiens; for inhibition at 10 µM: OVCAR-4 (Ovarian cancer), read-out: GI%
Outline: as §1

OVCAR-8 = conditions: Homo sapiens; for inhibition at 10 µM: OVCAR-8 (Ovarian cancer), read-out: GI%
Outline: as §1

RXF 393 = conditions: Homo sapiens; for inhibition at 10 µM: RXF 393 (Renal cancer), read-out: GI%
Outline: as §1

SK-MEL-28 = conditions: Homo sapiens; for inhibition at 10 µM: SK-MEL-28 (Melanoma), read-out: GI%
Outline: as §1

SK-MEL-2 = conditions: Homo sapiens; for inhibition at 10 µM: SK-MEL-2 (Melanoma), read-out: GI%
Outline: as §1

SK-OV-3 = conditions: Homo sapiens; for inhibition at 10 µM: SK-OV-3 (Ovarian cancer), read-out: GI%
Outline: as §1

SNB-75 = conditions: Homo sapiens; for inhibition at 10 µM: SNB-75 (CNS cancer), read-out: GI%
Outline: as §1

UACC-257 = conditions: Homo sapiens; for inhibition at 10 µM: UACC-257 (Melanoma), read-out: GI%
Outline: as §1

Structure (SMILES): COc1ccc(OC)c(C=NNC(=O)c2ccc3[nH]c(-c4ccc(Cl)cc4)nc3c2)c1 [8t, 2-(4-Chlorophenyl)-N'-(2,5-dimethoxybenzylidene)-1H-benzo[d]imidazole-5-carbohydrazide]
- inhibition at 10 µM (786–0): 26.6%
- inhibition at 10 µM (A498): 56.2%
- inhibition at 10 µM (A549/ATCC): 8.76%
- inhibition at 10 µM (ACHN): 53.1%
- inhibition at 10 µM (BT-549): 25.7%
- inhibition at 10 µM (CAKI-1): 38.4%
- inhibition at 10 µM (CCRF-CEM): 56.1%
- inhibition at 10 µM (COLO 205): 18.3%
- inhibition at 10 µM (HCT-116): 43.1%
- inhibition at 10 µM (HCT-15): 58.2%
- inhibition at 10 µM (HS 578 T): 48.8%
- inhibition at 10 µM (IGROV1): 7.82%
- inhibition at 10 µM (K-562): 52.9%
- inhibition at 10 µM (KM12): 23.3%
- inhibition at 10 µM (MALME-3 M): 18.4%
- inhibition at 10 µM (MDA-MB-231/ATCC): 89.7%
- inhibition at 10 µM (MDA-MB-435): 14.3%
- inhibition at 10 µM (NCI/ADR-RES): 11.2%
- inhibition at 10 µM (OVCAR-4): 38.9%
- inhibition at 10 µM (OVCAR-8): 17.2%
- inhibition at 10 µM (RXF 393): 96.5%
- inhibition at 10 µM (SK-MEL-28): 14.6%
- inhibition at 10 µM (SK-MEL-2): < 5%
- inhibition at 10 µM (SK-OV-3): 15.1%
- inhibition at 10 µM (SNB-75): 27.2%
- inhibition at 10 µM (UACC-257): < 5%

Structure (SMILES): COc1cc(C=NNC(=O)c2ccc3[nH]c(-c4ccc(Cl)cc4)nc3c2)cc(OC)c1OC [8u, 2-(4-Chlorophenyl)-N'-(3,4,5-trimethoxybenzylidene)-1H-benzo[d]imidazole-5-carbohydrazide]
- inhibition at 10 µM (786–0): > 100%
- GI50 (786–0; 786–0, Renal cancer, five-dose): 4.88 µM
- inhibition at 10 µM (A498): > 100%
- GI50 (A498; A498, Renal cancer, five-dose): 26.4 µM
- inhibition at 10 µM (A549/ATCC): 70.8%
- GI50 (A549/ATCC; A549/ATCC, Non-small cell lung cancer, five-dose): 7.55 µM
- inhibition at 10 µM (ACHN): 69.9%
- GI50 (ACHN; ACHN, Renal cancer, five-dose): 7.93 µM
- inhibition at 10 µM (BT-549): > 100%
- GI50 (BT-549; BT-549, Breast cancer, five-dose): 2.69 µM
- inhibition at 10 µM (CAKI-1): 97.1%
- GI50 (CAKI-1; CAKI-1, Renal cancer, five-dose): 11.2 µM
- inhibition at 10 µM (CCRF-CEM): > 100%
- GI50 (CCRF-CEM; CCRF-CEM, Leukemia, five-dose): 6.27 µM
- inhibition at 10 µM (COLO 205): > 100%
- GI50 (COLO 205; COLO 205, Colon cancer, five-dose): 2.84 µM
- GI50 (HCT-116): 3.26 µM
- inhibition at 10 µM (HCT-116): > 100%
- inhibition at 10 µM (HCT-15): 44.3%
- GI50 (HCT-15; HCT-15, Colon cancer, five-dose): 73 µM
- inhibition at 10 µM (HS 578 T): > 100%
- GI50 (HS 578 T; HS 578 T, Breast cancer, five-dose): 2.58 µM
- inhibition at 10 µM (IGROV1): 92.4%
- GI50 (IGROV1; IGROV1, Ovarian cancer, five-dose): 11 µM
- inhibition at 10 µM (K-562): > 100%
- GI50 (K-562; K-562, Leukemia, five-dose): 1.96 µM
- inhibition at 10 µM (KM12): > 100%
- GI50 (KM12; KM12, Colon cancer, five-dose): 4.5 µM
- inhibition at 10 µM (MALME-3 M): > 100%
- GI50 (MALME-3 M; MALME-3 M, Melanoma, five-dose): 1.12 µM
- inhibition at 10 µM (MDA-MB-231/ATCC): > 100%
- GI50 (MDA-MB-231/ATCC; MDA-MB-231/ATCC, Breast cancer, five-dose): 3.39 µM
- inhibition at 10 µM (MDA-MB-435): > 100%
- GI50 (MDA-MB-435; MDA-MB-435, Melanoma, five-dose): 4.13 µM
- inhibition at 10 µM (NCI/ADR-RES): 24.3%
- inhibition at 10 µM (OVCAR-4): > 100%
- GI50 (OVCAR-4; OVCAR-4, Ovarian cancer, five-dose): 2.35 µM
- inhibition at 10 µM (OVCAR-8): > 100%
- GI50 (OVCAR-8; OVCAR-8, Ovarian cancer, five-dose): 3.87 µM
- inhibition at 10 µM (RXF 393): > 100%
- GI50 (RXF 393; RXF 393, Renal cancer, five-dose): 2.22 µM
- inhibition at 10 µM (SK-MEL-28): > 100%
- GI50 (SK-MEL-28; SK-MEL-28, Melanoma, five-dose): 1.83 µM
- inhibition at 10 µM (SK-MEL-2): > 100%
- GI50 (SK-MEL-2; SK-MEL-2, Melanoma, five-dose): 11 µM
- inhibition at 10 µM (SK-OV-3): > 100%
- GI50 (SK-OV-3; SK-OV-3, Ovarian cancer, five-dose): 15 µM
- inhibition at 10 µM (SNB-75): > 100%
- GI50 (SNB-75; SNB-75, CNS cancer, five-dose): 1.28 µM
- inhibition at 10 µM (UACC-257): > 100%
- GI50 (UACC-257; UACC-257, Melanoma, five-dose): 4.67 µM
